The test system of assay [1] is Leptosphaeria nodorum. Put plainly: Microtiterplate test against wheat leaf spots (Leptno). The class given is cell-based.
The test system of assay [2] is Alternaria solani. Put plainly: Microtiterplate test against early blight (Alteso). In kind it is cell-based.
Assay [3] has as its system Septoria tritici. Put plainly: Microtiterplate test against leaf blotch on wheat (Septtr). The class given is cell-based.
The subject of assay [4] is Pyricularia oryzae. In kind it is cell-based. Particulars: Pyrior, single active, 7 days after inoculation.
In assay [5] the test system is Botrytis cinerea. Put plainly: Microtiterplate test against grey mold (Botrci). The class given is cell-based.
For assay [6], the system named is Phytophthora infestans (PHYTIN). The class given is in vivo. As to conditions: protective application, 7.2 ppm.
Assay [7] concerns Fusarium graminearum (GIBBZE). In kind it is in vivo. Particulars: protective application, 360 ppm.
Assay [8] has as its system Alternaria solani (ALTESO). Put plainly: Fungal growth assay in 96 well plates. In kind it is cell-based.
Assay [9] relates to Botrytis cinerea (BOTRCI). Put plainly: Fungal growth assay in 96 well plates. In kind it is cell-based. As to conditions: evaluation 7 days after inoculation, OD 600 nm, about 18° C., read-out: Fungal growth inhibition (IC50 [μM]) BOTRCI (7 d).
In assay [10] the test system is Phakopsora pachyrhizi (PHAKPA). Put plainly: Glasshouse test, soybean rust on soybean, protective application. In kind it is in vivo. As to conditions: in planta, 360 ppm.
The test system of assay [11] is Alternaria solani (ALTESO). Put plainly: Glasshouse test, early blight on tomato, protective application. The class given is in vivo. Particulars: in planta, 36 ppm.
For assay [12], the system named is Botrytis cinerea (BOTRCI). Put plainly: Glasshouse test, grey mold on pepper, protective application. As to conditions: in planta. In kind it is in vivo.
In assay [13] the test system is clinically relevant fungi and gram-positive bacteria such a Staphylococcus aureus. As to conditions: ChemMedChem 7, 871-882, 2012; cited from earlier work.
[14] abbreviates: evaluation 3 days after inoculation, OD 600 nm, about 18° C., read-out: Fungal growth inhibition (IC50 [μM]) ALTESO (3 d).
[15] abbreviates: evaluation 7 days after inoculation, OD 600 nm, about 18° C., read-out: Fungal growth inhibition (IC50 [μM]) ALTESO (7 d).
Where [16] appears, read: Alternaria solani, 72 h, evaluation 3 days after inoculation, OD 600 nm, about 18° C., read-out: Fungal growth inhibition (IC50 [μM]) ALTESO (3 d).
[17] abbreviates: Alternaria solani, 168 h, evaluation 7 days after inoculation, OD 600 nm, about 18° C., read-out: Fungal growth inhibition (IC50 [μM]) ALTESO (7 d).
The mark [18] stands for this setting: Alternaria solani, summary over ALTESO and BOTRCI of Tab. 18, read-out: IC50 values (antifungal efficacy, Tab. 18).
Setting [19] is: Botrytis cinerea, 168 h, 1 ppm, read-out: Observed efficacy.
The mark [20] stands for this setting: Botrytis cinerea, 168 h, read-out: Observed efficacy.
Where [21] appears, read: Botrytis cinerea, 168 h, 0.016 ppm, read-out: Observed efficacy.
[22] abbreviates: Botrytis cinerea, 168 h, 0.063 ppm, read-out: Observed efficacy.

Where two headings read alike, the source gives them in different places. Positions of bridges follow the written chain, without caps; N, C: chain ends. Non-standard residues stand in square brackets, D forms with d. Residues, ends and D or L forms follow the SMILES beside them. ξ: configuration not given here. *: point of attachment. Pentadecanoyl(3ξ-OH,15-Gua) = N=C(N)NCCCCCCCCCCCCC(O)CC(=O)*; d(aThr) = C[C@@H](O)[C@@H](N)C(=O)O

With `Cn1cc(C(=O)Nc2cccc3c2[C@@H]2CC[C@H]3C2=C(Cl)Cl)c(C(F)F)n1` (racemic) [Benzovindiflupyr, benzovindiflupyr, reference compound], the Observed efficacy in assay [1] (0.25 ppm) amounted to 26%; in [2] (0.016 ppm), 12%; in assay [3] (0.25 ppm), 77%; in assay [4] (0.016 ppm) it was 72%; in assay [5] (0.063 ppm) it was 17%.

What is called IC50 is the concentration needed to halve the response being measured. Regarding `CC(C)[C@@H]1NC(=O)[C@@H](C(C)C)NC(=O)[C@@H](NC(=O)CC(O)CCCCCCCCCCCCN=C(N)N)C(C)OC(=O)[C@@H](C)NC(=O)[C@@H](CCC(N)=O)NC(=O)[C@@H]([C@H](C)O)NC1=O` (stereo in doubt) [Fusaricidin B, fusaricidin B], in [6], the “% efficacy (% fungal attack), late blight on tomato caused by Phytophthora infestans” value is listed as 4%. The “% efficacy (% fungal attack), head blight on wheat caused by Fusarium graminearum” value in [7] was 0%. The IC50 in [8] (setting [14]) was 1.1 µM; in assay [8] (setting [15]), 0.6 µM; in assay [9], 0.6 µM.

On to `CO/C=C(/C(=O)OC)c1ccccc1Oc1cc(Oc2ccccc2C#N)ncn1` [Azoxystrobin], for which the Observed efficacy in [1] (0.25 ppm) amounted to 59%; in assay [2] (0.016 ppm) it was 43%; in assay [3] (0.063 ppm) it was 60%.

Regarding `CCC(C)C1NC(=O)C(NC(=O)CC(O)CCCCCCCCCCCCNC(=N)N)C(C)OC(=O)C(C)NC(=O)C(CC(N)=O)NC(=O)C(C(C)O)NC(=O)C(Cc2ccc(O)cc2)NC1=O` (stereo not drawn) [Compound 1A, fusaricidin 1A] ({Pentadecanoyl(3ξ-OH,15-Gua)}-TIYTNA; ester 1-C; configuration not given here), the “% efficacy (% fungal attack) PHAKPA” value in [10] was 95%. For the same compound, the Observed efficacy in assay [1] (1 ppm) worked out at 19%; in assay [2] (0.016 ppm) it was 1%; in [2] (0.063 ppm) it was 7%; in [2] (0.25 ppm), 10%; in assay [2] (1 ppm), 58%; in [3] (0.016 ppm) it was 9%. Besides, the Observed efficacy in assay [3] (0.063 ppm) is 8%; in assay [3] (0.25 ppm), 12%; in [4] (0.004 ppm) it was 3%; in assay [4] (1 ppm) it was 7%. Further, the IC50 is 0.6 µM in assay [8] (setting [16]); 0.5 µM in [8] (setting [17]); 0.4 to 0.6 µM in assay [8] (setting [18]); 0.3 µM in [9] (Botrytis cinerea, 168 h). Further, in assay [11], the “% efficacy (% fungal attack) ALTESO” value was 74%. Further, the results for the “% efficacy (% fungal attack) BOTRCI” value in assay [12] (36 ppm) and in [12] (360 ppm) were 97% and 99%, respectively. Also, the inhibition of growth at 1 ppm in assay [5] (setting [19]) was determined as 40%.

As to `CCC(C)C1NC(=O)C(NC(=O)CC(O)CCCCCCCCCCCCNC(=N)N)C(C)OC(=O)C(C)NC(=O)C(CCC(N)=O)NC(=O)C(C(C)O)NC(=O)C(Cc2ccc(O)cc2)NC1=O` (stereo not drawn) [Compound 1B, fusaricidin 1B] ({Pentadecanoyl(3ξ-OH,15-Gua)}-TIYTQA; ester 1-C; configuration not given here), in [10], the “% efficacy (% fungal attack) PHAKPA” value was 97%. Further, the Observed efficacy was found to be 0% in assay [1] (0.25 ppm); 14% in assay [1] (1 ppm); 13% in assay [2] (0.063 ppm); 14% in assay [2] (0.25 ppm); 59% in [2] (1 ppm); 20% in [3] (0.016 ppm). For the same compound, the Observed efficacy in [3] (0.063 ppm) worked out at 22%; in [3] (0.25 ppm), 20%; in assay [4] (0.016 ppm), 2%; in [4] (0.063 ppm), 3%; in [4] (0.25 ppm), 3%; in [4] (1 ppm), 12%. The IC50 in assay [8] (setting [16]) was 0.6 µM; in assay [8] (setting [17]) it was 0.4 µM; in assay [8] (setting [18]) it was 0.4 to 0.6 µM; in [9] (Botrytis cinerea, 168 h), 0.4 µM. In addition, the “% efficacy (% fungal attack) BOTRCI” value was determined as 97% in [12] (36 ppm) and 100% in [12] (360 ppm). In addition, the inhibition of growth at 0.25 ppm in [5] (setting [20]) was found to be 4%. In assay [5] (setting [19]), the inhibition of growth at 1 ppm amounted to 50%.

Turning to `CC1COC(Cn2cncn2)(c2ccc(Oc3ccc(Cl)cc3)cc2Cl)O1` (stereo not drawn) [Difenoconazol], the Observed efficacy in assay [2] (0.25 ppm) was found to be 67%.

Turning to `CNC(=O)/C(=N/OC)c1ccccc1COc1cc(C)ccc1C` [Dimoxystrobin], the Observed efficacy is on record as 36% in assay [2] (0.063 ppm), 73% in [3] (0.063 ppm), 0% in assay [5] (0.063 ppm) and 23% in [5] (1 ppm).

For the compound `N#Cc1c[nH]cc1-c1cccc2c1OC(F)(F)O2` [Fludioxonil], the inhibition of growth at 0.004 ppm in assay [5] (setting [20]) is 12%.

With `O=C(NCCc1ncc(C(F)(F)F)cc1Cl)c1ccccc1C(F)(F)F` [Fluopyram], the Observed efficacy is 12% in assay [3] (0.25 ppm) and 32% in [3] (1 ppm).

For `Cn1cc(C(=O)Nc2ccccc2-c2cc(F)c(F)c(F)c2)c(C(F)F)n1` [Fluxapyroxad], in [5] (0.016 ppm), the Observed efficacy worked out at 1%.

For the compound `CC(C)[C@@H]1NC(=O)[C@@H](C(C)C)NC(=O)[C@@H](NC(=O)CC(O)CCCCCCCCCCCCN=C(N)N)[C@@H](C)OC(=O)[C@@H](C)NC(=O)[C@@H](CC(N)=O)NC(=O)[C@@H]([C@@H](C)O)NC1=O` (stereo partly drawn) [Fusaricidin A, fusaricidin A] ({Pentadecanoyl(3ξ-OH,15-Gua)}-T[dV]V[d(aThr)][dN][dA]; ester 1-C), in [6], the “% efficacy (% fungal attack), late blight on tomato caused by Phytophthora infestans” value is listed as 15%. For the same compound, in assay [7], the “% efficacy (% fungal attack), head blight on wheat caused by Fusarium graminearum” value turned out to be 31%. The values for the half-maximal inhibitory concentration (IC50) in assay [8] (setting [14]), in [8] (setting [15]) and in assay [9] were 1.3 µM, 0.7 µM and 0.5 µM, respectively. Besides, in [13], the MIC value range was 0.78 to 3.12 µg/mL.

Turning to `COCC(=O)N(c1c(C)cccc1C)[C@H](C)C(=O)OC` [Mefenoxam], the Observed efficacy in assay [2] (1 ppm) was determined as 18%; in assay [5] (0.063 ppm), 5%.

As to `CC(O)(Cn1cncn1)c1ccc(Oc2ccc(Cl)cc2)cc1C(F)(F)F` (stereo not drawn) [Mefentrifluconazol, 2-[4-(4-chlorophenoxy)-2-(trifluoromethyl)phenyl]-1-(1H-1,2,4-triazol-1-yl) propan-2-ol, reference compound], the Observed efficacy was determined as 0% in [1] (0.001 ppm), 29% in assay [1] (0.016 ppm), 12% in assay [2] (0.016 ppm) and 21% in assay [3] (0.001 ppm). Also, the inhibition of growth at 0.016 ppm in assay [5] (setting [21]) turned out to be 5%.

For `COCC(=O)N(c1c(C)cccc1C)C(C)C(=O)OC` (stereo not drawn) [Metalaxyl], the Observed efficacy in [1] (0.063 ppm) was found to be 0%; in [2] (16 ppm), 10%. Also, the inhibition of growth at 0.25 ppm in assay [5] (setting [20]) was 0%.

Consider `CC1(C)CCC(Cc2ccc(Cl)cc2)C1(O)Cn1cncn1` (stereo not drawn) [Metconazol, metconazole, reference compound], for which the Observed efficacy in assay [1] (0.016 ppm) is reported as 3%; in assay [1] (0.063 ppm), 27%; in assay [2] (0.063 ppm), 45%; in assay [3] (0.016 ppm), 25%; in assay [4] (0.25 ppm) it was 23%. For the same compound, the inhibition of growth at 0.004 ppm in [5] (Botrytis cinerea, 168 h, 0.004 ppm, read-out: Observed efficacy) came to 1%. Further, the inhibition of growth at 0.016 ppm in assay [5] (setting [21]) is 9%. Also, in assay [5] (setting [22]), the inhibition of growth at 0.063 ppm stood at 29%.

Turning to `OC(Cc1ccccc1Cl)(Cn1nc[nH]c1=S)C1(Cl)CC1` (stereo not drawn) [Prothioconazol, prothioconazole, reference compound], the Observed efficacy in [3] (0.063 ppm) stood at 10%; in assay [4] (0.25 ppm) it was 25%.

In the case of `COC(=O)N(OC)c1ccccc1COc1ccn(-c2ccc(Cl)cc2)n1` [Pyraclostrobin, pyraclostrobin, reference compound], the Observed efficacy in assay [1] (0.001 ppm) is reported as 3%; in assay [1] (0.016 ppm), 11%; in [3] (0.004 ppm), 12%; in assay [4] (0.001 ppm), 28%; in assay [4] (0.004 ppm), 44%. The inhibition of growth at 0.001 ppm in assay [5] (Botrytis cinerea, 168 h, 0.001 ppm, read-out: Observed efficacy) was 4%. For the same compound, the inhibition of growth at 0.016 ppm in [5] (setting [21]) was 5%. For the same compound, in assay [5] (setting [20]), the inhibition of growth at 0.25 ppm came to 10%.

In turn, `Cc1cc(C)nc(Nc2ccccc2)n1` [Pyrimethanil] returned an Observed efficacy in assay [1] (0.063 ppm) of 1%. For the same compound, the inhibition of growth at 0.063 ppm in assay [5] (setting [22]) turned out to be 11%. In [5] (Botrytis cinerea, 168 h, 4 ppm, read-out: Observed efficacy), the inhibition of growth at 4 ppm is 45%.

In assay [4] (4 ppm), `CC1(C)CCC(=Cc2ccc(Cl)cc2)C1(O)Cn1cncn1` (stereo not drawn) [Triticonazol, triticonazole, reference compound] gave an Observed efficacy of 39%. Besides, the inhibition of growth at 0.25 ppm in assay [5] (setting [20]) came to 19%.

prohexadione-calcium [Prohexadion-ca] came in with an Observed efficacy in [4] (4 ppm) of 4%.

Source of the values: patent US20250212891A1, “MIXTURES AND COMPOSITIONS COMPRISING PAENIBACILLUS STRAINS OR FUSARICIDINS AND CHEMICAL PESTICIDES” (BASF SE, priority 2016, published 2025).
